The values that follow come from PubChem BioAssay AID1996.

Converted amounts (≈) assume the structure as drawn.

For the data set the following is noted: buffer; pH 7.4; 200.0 µM.
On to `Cc1ccc(SCC(=O)NCCc2ccc(F)cc2)cc1`, for which the kinetic solubility came out at 13.6 µg/mL (≈ 44.8 µM). Then `CNC(=O)c1c(NC(=O)c2ccc3ncsc3c2)sc(C)c1C`, with 2 µg/mL (≈ 5.79 µM); and `O=C(c1noc2c1CCCC2)N1CCc2ccccc2C1`, with 40.8 µg/mL (≈ 145 µM); and `Cc1ccc(N2C(=O)NC(=O)/C(=C\C=C\c3ccco3)C2=O)cc1`, with 8.8 µg/mL (≈ 27.3 µM). Then `COc1ccccc1-c1nc(COc2ccc(Cl)cc2Cl)no1`, with less than 0.4 µg/mL; and `Cc1cc(NCCCOC(C)C)n2c(nc3ccccc32)c1C#N`, with 1.4 µg/mL (≈ 4.34 µM). Next, `N#C/C(=C\c1cn(CC(=O)O)c2ccccc12)C(=O)NCc1ccccc1`: 48.9 µg/mL (≈ 136 µM). The compound `Fc1cccc(CN2CCN(c3ccc(Cl)cc3)CC2)c1` had a solubility (kinetic) of 4.1 µg/mL (≈ 13.5 µM). Against the preceding compound, the solubility kinetic is about 12-fold lower. Next, `O=C(CC(Nc1cccc(Cl)c1Cl)C(=O)O)c1ccccc1` (centres undefined): 43.2 µg/mL (≈ 128 µM); `COc1ccc(C(=O)OCC(=O)N2CCN(C(=O)c3ccco3)CC2)cc1OC`: greater than 60.4 µg/mL.

Regarding `COc1cccc(NC(=S)NC(=O)c2cccnc2)c1`, the solubility (kinetic) was 40 µg/mL (≈ 139 µM). As to `O=C1Nc2ccc(S(=O)(=O)NCCCO)c3cccc1c23`, the kinetic solubility is greater than 46 µg/mL.

Turning to `CN1C(=O)/C(=C\c2cccc(OCc3ccccc3)c2)SC1=S`, the solubility (kinetic) is less than 0.7 µg/mL. The compound `NC(=O)c1[nH]cnc1N` had a solubility (kinetic) greater than 18.9 µg/mL.

Regarding `O=C(CNc1cccc([N+](=O)[O-])c1)NCCCc1ccccc1`, the kinetic solubility turned out to be 8 µg/mL (≈ 25.5 µM). Then `NS(=O)(=O)c1ccc(N2CCN(C(=O)c3ccco3)CC2)nc1`, with greater than 50.5 µg/mL. Compound `CC(C)(C)c1csc(NC(=O)C2=COCCO2)n1` returned a kinetic solubility of 40.2 µg/mL (≈ 150 µM). Compound `CC(C)(C)c1ccc(C(=O)NC(=O)CSc2n[nH]c(N)n2)cc1` showed a solubility (kinetic) greater than 50 µg/mL. As for `CCCn1c(=O)c2[nH]c(C3CCCC3)nc2n(CCC)c1=O`, the kinetic solubility stood at 3.1 µg/mL (≈ 10.2 µM). `C=CCNc1nc2c(c(=O)[nH]c(=O)n2C)n1CCOc1ccccc1` gave a solubility (kinetic) of 3.3 µg/mL (≈ 9.67 µM).

The compound `CC(C)c1ccc(NC(=O)COC(=O)[C@@H]2CCCN2C(=O)c2cccs2)cc1` gave a solubility (kinetic) of 13.3 µg/mL (≈ 33.2 µM). Compared with the last compound, the solubility kinetic is about 4-fold higher. `Cc1ccc(CNC(=O)c2ccc(S(=O)(=O)N(C)C)cc2)n1C` gave a kinetic solubility of 48.6 µg/mL (≈ 145 µM). Then `COc1ccc(CNc2ccc([N+](=O)[O-])cn2)cc1`, with 3 µg/mL (≈ 11.6 µM); and `O=C1CCc2cc(S(=O)(=O)Nc3ccccc3)ccc2N1`, with greater than 45.4 µg/mL. In the case of `COc1cccc(C(=O)CC(=O)C(=O)Nc2ccc(C)cc2Cl)c1`, the solubility (kinetic) is 8.1 µg/mL (≈ 23.4 µM).

Compound `CCN(CC)C(=O)c1cccc(NC(=O)C2CCN(C(=O)c3cccs3)CC2)c1` yielded a solubility (kinetic) greater than 62 µg/mL. For `Cc1cc(C)c(S(=O)(=O)NCc2cccnc2)c(C)c1`, the solubility (kinetic) was greater than 43.6 µg/mL. Turning to `Cc1ccc(C)c(-c2cc(C(=O)NC3CC3)c3ccccc3n2)c1`, the solubility (kinetic) was 39.6 µg/mL (≈ 125 µM). The compound `COc1ccc(CCNC(=O)COC(=O)c2ccccn2)cc1` registered a kinetic solubility greater than 47.2 µg/mL. In the case of `Cc1ccc2oc(C(=O)NCCC3CCCCO3)c(C)c2c1` (centres undefined), the solubility (kinetic) is 43.1 µg/mL (≈ 143 µM).

Turning to `CCOc1ccc(CN2CCC(Cc3ccccc3)CC2)cc1`, the kinetic solubility was determined as 24.3 µg/mL (≈ 78.5 µM). The compound `CCCCC1C2C(=O)N(c3ccccc3)C(=O)C2ON1c1ccccc1` (centres undefined) gave a solubility (kinetic) of 49.1 µg/mL (≈ 140 µM). Against the preceding compound, the solubility kinetic is about 2-fold higher. Next, `COc1ccc(CNc2nc(Cl)c(C#N)s2)cc1`: 1.1 µg/mL (≈ 3.93 µM); `Cl.O=C(CCN1CCOCC1)NC12CC3CC(CC(C3)C1)C2`: 48.9 µg/mL; `CCOc1ccccc1/C=C/C(=O)N1CCN(C(=O)c2ccco2)CC1`: greater than 53.2 µg/mL. Next, `Cc1cccc(NC(=O)C(Cc2ccccc2)n2cccc2)c1` (centres undefined): 11.6 µg/mL (≈ 38.1 µM); `CC(=O)Nc1ccc(NC(=O)Nc2cccc(Cl)c2)cc1`: 1.4 µg/mL (≈ 4.61 µM); `C=CCCOc1ccccc1C(N)=O`: 25.8 µg/mL (≈ 135 µM). Then `CCCCN(C(=O)c1ccco1)C1CCS(=O)(=O)C1` (centres undefined), with greater than 42.8 µg/mL. On to `Cn1ncc2c(NCc3ccccc3)nc(NCCCO)nc21`, for which the kinetic solubility was greater than 46.9 µg/mL. `C[C@@H]1C(NC(=O)c2ccccc2)CC2CC1C2(C)C` (some centres undefined) yielded a kinetic solubility of 6.4 µg/mL (≈ 24.9 µM). Compound `O=C(Nc1cccc(NC(=O)C2CCCO2)c1)C1CCCO1` (centres undefined) had a solubility (kinetic) greater than 45.7 µg/mL. `CCOC(=O)C1=C(C)NC(=O)CC1c1ccccc1OC` (centres undefined) registered a solubility (kinetic) of 36.8 µg/mL (≈ 127 µM).

In the case of `CCn1c(NC(C)=O)c(-c2ccccc2Cl)c(=O)c2ccccc21`, the kinetic solubility is 49.5 µg/mL (≈ 145 µM).

`Cc1nc(C(F)(F)F)ccc1C(=O)NCC(O)c1ccccc1` (centres undefined) gave a solubility (kinetic) greater than 48.6 µg/mL. The compound `Cc1nc2c3cc(Cl)ccc3n(CCN3CCOCC3)c2s1` displayed a kinetic solubility of 7.7 µg/mL (≈ 22.9 µM). On to `COCCNC(=O)Nc1ccc(F)cc1`, for which the solubility (kinetic) is greater than 31.8 µg/mL.

`Cc1ccnc(N2C3CCC2CC(O)(c2ccccc2)C3)n1` (centres undefined) returned a solubility (kinetic) greater than 44.3 µg/mL.

As for `Cc1ccc2cc(NC(=O)c3ccc(C(C)(C)C)cc3)ccc2n1`, the kinetic solubility was less than 0.3 µg/mL. Take `O=C(Nc1nccs1)c1ncc(Cl)c(Cl)c1Cl`: the solubility (kinetic) amounted to 12.5 µg/mL (≈ 40.5 µM). Then `CCOc1ncccc1C(=O)Nc1nc(C(C)(C)C)cs1`, with 0.6 µg/mL (≈ 1.96 µM); and `O=C(COC(=O)c1ccc(Cl)nc1)Nc1ccc(Cl)cc1`, with 6.4 µg/mL (≈ 19.7 µM); and `Cc1ccnc(N2CCCC(C(=O)NC3CC3)C2)n1` (centres undefined), with 37.3 µg/mL (≈ 143 µM).

As to `COc1cc(/C=C/c2[nH]c(=O)[nH]c(=O)c2[N+](=O)[O-])cc(OC)c1O`, the solubility (kinetic) was greater than 50.3 µg/mL.

For `O=C(Nc1cc(Cl)c(Cl)cc1Cl)c1cccnc1`, the solubility (kinetic) turned out to be 6.1 µg/mL (≈ 20.2 µM). `Cc1cccc(N(Cc2ccccc2)C(=O)CCl)c1` registered a kinetic solubility greater than 41.1 µg/mL. As for `O=S(=O)(c1cc(F)ccc1F)N1CCN(c2ccccn2)CC1`, the kinetic solubility came out at 18.9 µg/mL (≈ 55.7 µM). With `Cc1ccc2cccc(OCc3cccc([N+](=O)[O-])c3)c2n1`, the solubility (kinetic) is 23.6 µg/mL (≈ 80.2 µM). This solubility kinetic and that of the compound before are within 1.5-fold of each other.

Compound `CCOC(=O)C1CCN(C(=O)CSc2nc(N)cc(=O)[nH]2)CC1` had a kinetic solubility greater than 51.1 µg/mL.

For the compound `Cc1ccc(C(=O)NCC(=O)NCc2ccccc2F)s1`, the kinetic solubility was greater than 46 µg/mL. `CNC(=S)NC1(C)CCS(=O)(=O)C1` (centres undefined) had a solubility (kinetic) greater than 33.3 µg/mL.

Compound `Cc1ccc(OCCC(=O)OC(C)C(=O)NC2CC2)cc1` (centres undefined) showed a solubility (kinetic) greater than 43.7 µg/mL.

As for `C=CCOc1nc2c(c(=O)n(C)c(=O)n2C)n1Cc1ccccc1`, the kinetic solubility came out at 8.2 µg/mL (≈ 25.1 µM).

`Cc1nc(NC(=O)CSc2nncs2)c(Cl)cc1Cl` had a kinetic solubility greater than 50.3 µg/mL. Compound `O=[N+]([O-])c1ccc(CN2CCCCCC2)cc1` displayed a solubility (kinetic) greater than 35.1 µg/mL. The compound `CCCC(=O)Nc1nnc(SCC(=O)NC2CC2)s1` showed a kinetic solubility greater than 45.1 µg/mL. On to `Cc1ccccc1NC(=O)NC1CCCCCCC1`, for which the solubility (kinetic) amounted to 1.5 µg/mL (≈ 5.76 µM). Consider `CCCC(C(=O)Nc1ccc2c(C)cc(=O)oc2c1)c1ccccc1` (centres undefined), for which the solubility (kinetic) came to 2.9 µg/mL (≈ 8.65 µM). This solubility kinetic lies about 1.9-fold higher than the previous one.

`CN1CCCN(S(=O)(=O)c2ccc3ccccc3c2)CC1` had a kinetic solubility greater than 45.7 µg/mL. In turn, `CC(C)Sc1ccccc1C(=O)Nc1ccc2c(c1)n(C)c(=O)n2C` displayed a solubility (kinetic) greater than 53.3 µg/mL. On to `Nc1nc(NCCCN2CCOCC2)nc(Nc2cccc(F)c2)c1[N+](=O)[O-]`, for which the solubility (kinetic) is 6.3 µg/mL (≈ 16.1 µM). Then `Cn1c(SCc2ccccc2Br)nc2ccccc2c1=O`, with 0.4 µg/mL (≈ 1.11 µM). With `Cc1c(Cl)cccc1NC(=S)N1CCCCCC1`, the kinetic solubility is 29.3 µg/mL (≈ 104 µM).

For `COCCCn1c(SCC(=O)c2ccccc2)nc2ccccc2c1=O`, the kinetic solubility stood at 1.1 µg/mL (≈ 2.99 µM). `COc1ccc(C(=O)OCc2c(C)noc2C)cc1` showed a solubility (kinetic) greater than 39.2 µg/mL. On to `COc1ccc(NC(=O)Oc2ccccc2)cc1Cl`, for which the kinetic solubility is 18.4 µg/mL (≈ 66.3 µM). As to `CCOC(=O)c1csc(COc2ccccc2Cl)n1`, the kinetic solubility amounted to 2.9 µg/mL (≈ 9.74 µM).

`O=C(NCCC1CC1(Cl)Cl)Nc1ccccc1` (centres undefined) returned a kinetic solubility greater than 41 µg/mL.

With `O=C(CCNS(=O)(=O)c1ccc(F)c(F)c1)NCCN1CCOCC1`, the kinetic solubility was greater than 56.6 µg/mL. As for `CN(C(=O)Cc1c(C(=O)O)n(C)c2ccccc12)c1ccc(Cl)cc1`, the solubility (kinetic) is greater than 53.5 µg/mL.

Regarding `O=C(NCCc1ccccc1)C1CCCN(c2cnccn2)C1` (centres undefined), the kinetic solubility is 45.9 µg/mL (≈ 148 µM). `Cc1nc(N)c(C#N)c(-c2cccnc2)c1-c1ccccc1` yielded a solubility (kinetic) of 0.6 µg/mL (≈ 2.1 µM).

As to `Cc1ccc(OCC(=O)Nc2ccc(S(=O)(=O)N3CCCC3)cc2)cc1`, the solubility (kinetic) turned out to be 0.5 µg/mL (≈ 1.34 µM). This solubility kinetic and that of the compound before are within 1.5-fold of each other.

On to `CC(=O)CC(C)(C)Nc1nc2ccc([N+](=O)[O-])cc2o1`, for which the kinetic solubility is greater than 41.6 µg/mL.

Compound `O=C1CC(C(=O)Nc2cccc(F)c2)n2c(nc3ccccc32)N1` (centres undefined) returned a kinetic solubility of 0.9 µg/mL (≈ 2.78 µM). Turning to `Cc1cc(C)c(C)c(OCC(=O)O/N=C(\N)c2cccnc2)c1`, the kinetic solubility was 2.5 µg/mL (≈ 7.98 µM).

As to `CCn1nc(C(C)C(=O)O)c2ccccc2c1=O` (centres undefined), the solubility (kinetic) was greater than 36.9 µg/mL.

As for `COc1ccc(-n2c(C)ccc2-c2ccccc2)cn1`, the kinetic solubility amounted to 5.9 µg/mL (≈ 22.3 µM). Next, `Fc1cc(Cl)ccc1NC(=S)NCCN1CCOCC1`: greater than 47.7 µg/mL; `C=CCNC(=O)N1CCC(c2nc3ccccc3s2)CC1`: greater than 45.2 µg/mL. On to `CC1CCN(C2(O)C(=O)Nc3ccc(Cl)cc32)CC1` (centres undefined), for which the solubility (kinetic) is greater than 42.1 µg/mL.

`O=[N+]([O-])c1ccc(Cl)c(NC2=NCCCCC2)c1` showed a solubility (kinetic) greater than 40.2 µg/mL. Then `Cc1ccc([N+](=O)[O-])c(OCC(O)CNC(C)(C)C)c1.Cl` (centres undefined), with greater than 47.8 µg/mL; and `COc1ccc(OC)c(NC(=O)COC(=O)C2CCCCC2)c1`, with 2.9 µg/mL (≈ 9.02 µM).

For the compound `COC(=O)c1cc(C(=O)OC)n(Cc2ccc(F)cc2)c1C`, the kinetic solubility turned out to be 10.6 µg/mL (≈ 34.7 µM). This solubility kinetic is about 3.7-fold higher than that of the compound before. With `O=C(/C=C/c1cccnc1)c1ccc(F)c(F)c1`, the kinetic solubility stood at 27.8 µg/mL (≈ 113 µM). The compound `CC1CCCN(Cc2csc(N)n2)C1` (centres undefined) displayed a kinetic solubility greater than 31.7 µg/mL.

For `CC(C)(C#N)NC(=O)C(=O)c1c(-c2ccccc2)cc2ccccn12`, the kinetic solubility is greater than 49.7 µg/mL. As to `COc1ccc(CCNC(=O)C(C)SCC(=O)Nc2ccc(F)cc2)cc1` (centres undefined), the solubility (kinetic) was greater than 58.6 µg/mL. For `O=C(NCc1ccco1)c1ccc2[nH]c(=O)c(=O)[nH]c2c1`, the solubility (kinetic) was greater than 42.8 µg/mL.

In turn, `CC1SC(c2ccc(F)cc2)N(CCc2ccccc2)C1=O` (centres undefined) gave a solubility (kinetic) of 21.8 µg/mL (≈ 69.1 µM). Compound `Cc1cc(C(=O)OCC(=O)NCc2ccccc2)c(C)o1` had a kinetic solubility greater than 43.1 µg/mL. Compound `C=CCNC(=O)CN1CCC(c2nc3cc(C)c(C)cc3[nH]2)CC1` displayed a kinetic solubility greater than 49 µg/mL. Take `NC(=O)C1CCCN(C(=O)CCCNC(=O)c2ccc(Cl)cc2)C1` (centres undefined): the kinetic solubility is greater than 52.8 µg/mL.

By solubility (kinetic) is commonly meant solubility judged after dilution from a stock solution rather than from solid.
